Data: patent publication US5322847A, “Azabenzimidazoles in the treatment of asthma, arthritis and related diseases” (Pfizer Inc., priority 1992, dated 1994)

Legend:
[1] = target: T1, PAF receptor sites on rabbit platelet homogenate (Oryctolagus cuniculus, UniProt G1TEI7); assay: platelet activating factor (PAF) receptor assay; assay type: binding; conditions: radioligand 3H-PAF; constant used in Ki=(IC50)/[1+(L/Kd)]; 25° C., sodium-free buffer +0.25% BSA; read-out: Kd (dissociation constant)
T1 construct: specific PAF receptor sites on rabbit platelet homogenate; tissue Rockland, Inc., Gilbertsville, Pa; (rabbit blood mixture); host or cells: platelets from blood of normal New Zealand white rabbits, freeze-thawed homogenate
T1 sequence (G1TEI7 1-342): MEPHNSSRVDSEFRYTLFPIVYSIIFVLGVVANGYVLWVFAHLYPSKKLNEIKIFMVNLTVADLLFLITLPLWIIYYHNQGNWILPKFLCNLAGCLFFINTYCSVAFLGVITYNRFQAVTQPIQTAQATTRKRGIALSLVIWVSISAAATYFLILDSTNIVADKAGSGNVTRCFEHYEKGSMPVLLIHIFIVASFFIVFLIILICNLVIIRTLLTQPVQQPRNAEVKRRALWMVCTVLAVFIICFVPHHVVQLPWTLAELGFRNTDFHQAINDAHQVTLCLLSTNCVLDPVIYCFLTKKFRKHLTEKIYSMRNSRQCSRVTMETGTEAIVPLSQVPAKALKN
Text: The platelet activating factor (PAF) receptor assay tests the ability of a compound to compete with radiolabeled PAF for specific PAF receptor sites on rabbit platelet homogenate.
Five hundred milliliters of a rabbit blood mixture is purchased from Rockland, Inc., Gilbertsville, Pa. The blood mixture is 4 parts blood: 1 part 4% sodium citrate (v/v), and is obtained by heart puncture from normal, approximately 8-month old New Zealand white rabbits. The blood mixture is delivered overnight on wet ice (approx. 8° C.).
The blood mixture is centrifuged at 514 g for 10 minutes. The supernatant platelet-rich plasma is gently laid over Ficoll-Paque (Pharmacia) at a ratio of 9 parts plasma:2 parts Ficoll (v/v) The plasma/Ficoll mixture is centrifuged at 856 g for 20 minutes. […] Protein concentration of the suspension is determined by a Bio-Rad assay. […]
The reaction tubes are incubated at 25° C. for 45 minutes. […] The vial is capped, vortexed and counted for 3H.
Percent specific binding is calculated using the formula
Percent specific binding is graphed as a function of compound concentration. […] Alternatively, the IC50 is calculated using the logistic dose-response (Hill plot) option of the VAX Biostat utility. The inhibitory constant (Ki) is calculated by using the formula […]

[2] = system: PAF lethality in CDl male mice; assay: PAF lethality assay; assay type: in vivo; conditions: Mus musculus; positive control; oral dosing 45 minutes before i.v. PAF injection; read-out: approximate ED 50
Procedure: To evaluate the compounds of the formula (I) in vivo, they are tested by the so-called PAF lethality assay procedure:
Mice: CDl males, all approximately the same weight (approximately 26 grams), 12 per group.
Vehicle for oral drug dosing: EES (5% ethanol, 5% emulphor, 90% saline). Stored at room temperature.
Drugs: For routine screening at 50 mg/kg, 20 mg drug is dissolved in 4 ml EES, using sonication in a sonicator bath or grinding in a Ten Broeck grinder to dissolve drug if necessary. If solubility is still a problem, the drug is used as a suspension.
Vehicle for i.v. Injection: Saline with 2.5 mg/ml Bovine Serum Albumin (BSA, Sigma #A4378) and 0.05 mg/ml Propranolol (Sigma #PO884). Prepared fresh daily and kept at room temperature.
Platelet Activating Factor (PAF): A […] stock solution is prepared by dissolving 1 mg PAF (Calbiochem #429460) in 0.18 ml ethanol. This is stored at -20° C. and is diluted in vehicle (see above) the day of use. The concentration of PAF used is calibrated so that when injected at 0.1 ml/10 grams body weight, it will kill approximately 80% of untreated controls. This is usually about […] (a 1 to 2034 dilution from stock). […]
Method: 45 minutes before PAF injection, mice are treated orally with drug using 0.1 ml/10 grams body weight. […] Results are expressed as percent mortality as compared to controls. […]

| SMILES | Kd [1] [nM] | ED50 [2] [mg/kg] |
| --- | --- | --- |
| CCCCCCCCCCCCCCCCOCC(COP(=O)([O-])OCC[N+](C)(C)C)OC(C)=O (centres unmarked) [Example 3H-PAF] | 0.83 |  |
| O=C1CCN(c2ccccc2)N1 [Phenidone] |  | ~25 |
